The values that follow are results of earlier work, collected in article PMC5944417 (Heliyon, 2018).

Usually Ki stands for a measure of affinity in units of concentration, obtained from inhibition or displacement.

Holding throughout (conditions): ref Maes et al., 2007
Data set [1] deals with endoproteinase Lys-C.
Data set [2] relates to papain.
Data set [3] concerns the target trypsin.
The target of data set [4] is plasmin.
In data set [5] the test system is porcine kallikrein.
Data set [6] addresses cathepsin B.

On to `CC(=O)N[C@@H](CC(C)C)C(=O)N[C@@H](CC(C)C)C(=O)N[C@H](C=O)CCCNC(=N)N` [Leupeptin, N-acetyl-L-leucyl-L-leucyl-L-argininal], for which the inhibition result in data set [1], in data set [2] and in data set [5] was “inhibited” throughout. Besides, the Ki in data set [3] was 3.4 nM; in data set [4], 3.5 nM; in data set [6], 4.1 nM.
